{"source": "ChEMBL document CHEMBL1145393", "about": "“Synthesis and antitumour activity of new tiazofurin analogues bearing a 2,3-anhydro functionality in the furanose ring” (Bioorg Med Chem Lett, 2007)", "key": {"Jurkat": {"tested_on": "Jurkat", "experiment": "Cytotoxicity against human Jurkat T cells after 48 hrs by MTT assay", "assay_type": "cell-based"}, "HL-60": {"tested_on": "HL-60", "experiment": "Cytotoxicity against human HL60 cell line after 48 hrs by MTT assay", "assay_type": "cell-based", "settings": "HL-60, 48 h"}, "MCF7": {"tested_on": "MCF7", "experiment": "Cytotoxicity against human MCF7 cell line after 48 hrs by MTT assay", "assay_type": "cell-based", "settings": "MCF7, 48 h"}, "K562": {"tested_on": "K562", "experiment": "Cytotoxicity against human K562 cells after 48 hrs by MTT assay", "assay_type": "cell-based", "settings": "K562, 48 h"}, "HT-29": {"tested_on": "HT-29", "experiment": "Cytotoxicity against human HT29 cell line after 48 hrs by MTT assay", "assay_type": "cell-based", "settings": "HT-29, 48 h"}, "MRC5": {"tested_on": "MRC5", "experiment": "Cytotoxicity against human MRC5 cell line after 48 hrs by MTT assay", "assay_type": "functional, cell-based", "settings": "MRC5, 48 h"}, "Raji": {"tested_on": "Raji", "experiment": "Cytotoxicity against human Raji cells after 48 hrs by MTT assay", "assay_type": "cell-based"}}, "data": [{"smiles": "NC(=O)c1csc(C[C@@H]2O[C@H](CO)[C@H]3O[C@H]32)n1", "values": [{"measurement": "IC50", "setting": "Jurkat", "result": 2.18, "unit": "µM"}, {"measurement": "IC50", "setting": "HL-60", "result": 3.5, "unit": "µM"}, {"measurement": "IC50", "setting": "MCF7", "result": 9.09, "unit": "µM"}, {"measurement": "IC50", "setting": "K562", "result": 0.49, "unit": "µM"}, {"measurement": "IC50", "setting": "HT-29", "result": 0.09, "unit": "µM"}, {"measurement": "IC50", "setting": "MRC5", "result": "> 100", "unit": "µM"}, {"measurement": "IC50", "setting": "Raji", "result": 0.07, "unit": "µM"}]}, {"smiles": "NC(=O)c1csc(C[C@H]2O[C@H](CO)[C@H]3O[C@H]32)n1", "values": [{"measurement": "IC50", "setting": "Jurkat", "result": 11, "unit": "µM"}, {"measurement": "IC50", "setting": "HL-60", "result": "> 100", "unit": "µM"}, {"measurement": "IC50", "setting": "MCF7", "result": 10, "unit": "µM"}, {"measurement": "IC50", "setting": "K562", "result": 0.09, "unit": "µM"}, {"measurement": "IC50", "setting": "HT-29", "result": 0.53, "unit": "µM"}, {"measurement": "IC50", "setting": "MRC5", "result": "> 100", "unit": "µM"}, {"measurement": "IC50", "setting": "Raji", "result": "> 100", "unit": "µM"}]}, {"smiles": "NC(=O)c1csc([C@@H]2O[C@H](CO)[C@H]3O[C@H]32)n1", "values": [{"measurement": "IC50", "setting": "Jurkat", "result": 4.84, "unit": "µM"}, {"measurement": "IC50", "setting": "HL-60", "result": 2.08, "unit": "µM"}, {"measurement": "IC50", "setting": "MCF7", "result": 0.96, "unit": "µM"}, {"measurement": "IC50", "setting": "K562", "result": 0.19, "unit": "µM"}, {"measurement": "IC50", "setting": "HT-29", "result": "> 100", "unit": "µM"}, {"measurement": "IC50", "setting": "MRC5", "result": "> 100", "unit": "µM"}, {"measurement": "IC50", "setting": "Raji", "result": 0.54, "unit": "µM"}]}, {"smiles": "NC(=O)c1csc([C@@H]2O[C@H](CO)[C@@H](O)[C@H]2O)n1", "note": "[TIAZOFURIN]", "values": [{"measurement": "IC50", "setting": "Jurkat", "result": 0.51, "unit": "µM"}, {"measurement": "IC50", "setting": "HL-60", "result": 1.84, "unit": "µM"}, {"measurement": "IC50", "setting": "MCF7", "result": 6.39, "unit": "µM"}, {"measurement": "IC50", "setting": "HT-29", "result": 0.89, "unit": "µM"}, {"measurement": "IC50", "setting": "MRC5", "result": 0.49, "unit": "µM"}, {"measurement": "IC50", "setting": "Raji", "result": 16.1, "unit": "µM"}]}]}
